Our source for the EC50 and IC50 values is patent publication US10899758B2, “Inhibitors of the menin-MLL interaction” (Vitae Pharmaceuticals, LLC, priority 2016, dated 2021).

For experiment [1], the system named is human acute monocytic leukemia cell line MV-4-11. Put plainly: Assay 2 (Cell Proliferation Assay), ATP quantitation (CellTiter-Glo). The experiment is classed as cell-based. The note with it: MV-4-11 cells, read-out: Assay 2 (EC50, inhibition of cell proliferation). On the procedure: Potencies of inhibitor compounds against cell proliferation was assessed against the human acute monocytic leukemia cell line MV-4-11 (ATCC® CRL-9591™) based on ATP quantitation. MV-4-11 cells or toxicity control HL-60 cells (ATCC® CCL-240™) were incubated in 96-well tissue culture plates (1.67×10^4 cells in 200 μL culture media containing 10% FBS per well) with or without test compound for 72 h at 37° C., 5% CO2. After incubation, each well was mixed by pipetting and 95 μL from each well was transferred to a well in 96-well black OptiPlate® plates (PerkinElmer). An equal volume of CellTiter-Glo® Luminescent Cell Viability Assay reagent (Promega) was added to each well, followed by mixing for 5 min on an orbital plate shaker. Luminescence was measured on a Wallac EnVision 2104 Multilabel Reader (PerkinElmer) to quantitate ATP. Percent inhibition of cell proliferation by test compounds was calculated based on uninhibited cell growth (DMSO) versus cells treated with a potent menin inhibitor at a concentration yielding at least 100×LD50.

Experiment [2] addresses T1, menin/MLL binding (biotinylated wild-type or mutated menin and MLL-AF9 fusion protein) (Homo sapiens, UniProt O00255).
T1 construct: biotinylated (1) wild-type menin or (2) mutated menin (described in Nature (2012) Vol. 482, pp. 542-548); fused on or other part: Biotin attached chemically (Sulfo-NHS-Biotin); no fused second protein is printed for menin
T1 sequence (O00255 1-459 limits assumed): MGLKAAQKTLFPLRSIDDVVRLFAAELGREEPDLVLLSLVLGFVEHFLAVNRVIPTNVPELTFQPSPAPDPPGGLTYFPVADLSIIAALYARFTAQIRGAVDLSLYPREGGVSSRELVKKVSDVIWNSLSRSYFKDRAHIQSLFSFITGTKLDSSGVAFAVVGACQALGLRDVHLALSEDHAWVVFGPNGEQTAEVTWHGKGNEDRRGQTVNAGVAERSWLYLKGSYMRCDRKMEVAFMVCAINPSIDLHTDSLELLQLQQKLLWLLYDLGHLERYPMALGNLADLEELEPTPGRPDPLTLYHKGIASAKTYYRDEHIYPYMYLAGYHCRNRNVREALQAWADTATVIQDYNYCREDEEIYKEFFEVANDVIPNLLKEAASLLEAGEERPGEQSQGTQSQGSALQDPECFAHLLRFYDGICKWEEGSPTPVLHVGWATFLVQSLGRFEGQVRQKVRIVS
Put plainly: Assay 1 (Binding Assay): AlphaLISA menin/MLL binding. Particulars: 5 nM biotinylated menin, MLL-AF9-FLAG lysate. The procedure, abridged:
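Biotinylated E. coli-expressed menin (wild-type or mutant), 5 nM, incubated 30 min RT with compound and HEK293 lysate of MLL1-1,396–AF9-FLAG in pH 7.4 Tris buffer, 5% DMSO, 1 mM DTT. Anti-FLAG acceptor and streptavidin donor beads added, 60 min RT, AlphaLISA signal read. IC50 from four-parameter fit of % inhibition.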

Read-outs that look alike come from different tables or passages of the source.

In the case of `CC(C)N(C)C(=O)c1cc(F)ccc1-n1cc(C2CCN(CC[C@H]3CC[C@H](NC(=O)OC(C)(C)C)CC3)CC2)c2ccncc21` [Example 18A, tert-butyl (trans-4-(2-(4-(1-(4-fluoro-2-(isopropyl(methyl)carbamoyl)phenyl)-1H-pyrrolo[2,3-c]pyridin-3-yl)piperidin-1-yl)ethyl)cyclohexyl)carbamate], the EC50 in experiment [1] (Homo sapiens, MV4-11, 72 h) is 100 to 1000 nM. In addition, the IC50 in experiment [2] is less than 100 nM.

With `CC(C)N(C)C(=O)c1cc(F)ccc1-n1cc(C2CCCN(Cc3ccccc3)C2)c2ccncc21` (stereo not shown) [Example 45, 2-(3-(1-benzylpiperidin-3-yl)-1H-pyrrolo[2,3-c]pyridin-1-yl)-5-fluoro-N-isopropyl-N-methylbenzamide], in experiment [1] (Homo sapiens, MV4-11, 72 h), the EC50 lay in the range of 100 to 1000 nM. In experiment [2], this compound gave an IC50 of less than 100 nM.

On to `CC(C)N(C)C(=O)c1cc(F)ccc1-n1cc(C2CCN(Cc3ccc4cc(C#N)[nH]c4c3)CC2)c2ccncc21` [Example 8, 2-(3-(1-((2-cyano-1H-indol-6-yl)methyl)piperidin-4-yl)-1H-pyrrolo[2,3-c]pyridin-1-yl)-5-fluoro-N-isopropyl-N-methylbenzamide], for which the EC50 in experiment [1] (Homo sapiens, MV4-11, 72 h) is less than 100 nM. In addition, the IC50 in experiment [2] was less than 100 nM.

Turning to `Cc1ccccc1CN1CCC(c2cn(-c3ccc(F)cc3C(=O)N(C)C(C)C)c3cnccc23)CC1` [Example 14, 5-fluoro-N-isopropyl-N-methyl-2-(3-(1-(2-methylbenzyl)piperidin-4-yl)-1H-pyrrolo[2,3-c]pyridin-1-yl)benzamide], in experiment [1] (Homo sapiens, MV4-11, 72 h), the EC50 lay within 100 to 1000 nM. In experiment [2], this compound yielded an IC50 of less than 100 nM.

Take `CC(C)N(C)C(=O)c1cc(F)ccc1-n1cc(C2CCCN(Cc3ccc4[nH]c(=O)[nH]c4c3)C2)c2ccncc21` (stereo not shown) [Example 43, 5-fluoro-N-isopropyl-N-methyl-2-(3-(1-((2-oxo-2,3-dihydro-1H-benzo[d]imidazol-5-yl)methyl)piperidin-3-yl)-1H-pyrrolo[2,3-c]pyridin-1-yl)benzamide]: the EC50 in experiment [1] (Homo sapiens, MV4-11, 72 h) is less than 100 nM. Further, in experiment [2], the IC50 is less than 100 nM.

Turning to `CC(C)N(C)C(=O)c1cc(F)ccc1-n1cc([C@H]2CC[C@H](N3CC[C@H](CO)C3)CC2)c2ccncc21` [Example 104, 5-fluoro-2-(3-(trans-4-((S)-3-(hydroxymethyl)pyrrolidin-1-yl)cyclohexyl)-1H-pyrrolo[2,3-c]pyridin-1-yl)-N-isopropyl-N-methylbenzamide], the EC50 in experiment [1] (Homo sapiens, MV4-11, 72 h) was 100 to 1000 nM. This compound also displayed an IC50 in experiment [2] of less than 100 nM.

As to `CC(C)N(C)C(=O)c1cc(F)ccc1-n1cc(C2CCN(Cc3ccccc3Cl)CC2)c2ccncc21` [Example 15, 2-(3-(1-(2-chlorobenzyl)piperidin-4-yl)-1H-pyrrolo[2,3-c]pyridin-1-yl)-5-fluoro-N-isopropyl-N-methylbenzamide], in experiment [1] (Homo sapiens, MV4-11, 72 h), the EC50 was in the range of 100 to 1000 nM. The compound further had an IC50 in experiment [2] of less than 100 nM.

For the compound `CC(C)N(C)C(=O)c1cc(F)ccc1-n1cc([C@H]2CC[C@@H](N3CCC(O)CC3)CC2)c2ccncc21` [Example 109, 5-fluoro-2-(3-(cis-4-(4-hydroxypiperidin-1-yl)cyclohexyl)-1H-pyrrolo[2,3-c]pyridin-1-yl)-N-isopropyl-N-methylbenzamide], the EC50 in experiment [1] (Homo sapiens, MV4-11, 72 h) lay within 100 to 1000 nM. Moreover, the IC50 in experiment [2] was less than 100 nM.

As for `CC(C)N(C)C(=O)c1cc(F)ccc1-n1cc(C2CCC(NCc3ccc4[nH]c(=O)[nH]c4c3)CC2)c2ccncc21` (single isomer, unassigned) [Example 60A, 5-fluoro-N-isopropyl-N-methyl-2-(3-(4-(((2-oxo-2,3-dihydro-1H-benzo[d]imidazol-5-yl)methyl)amino)cyclohexyl)-1H-pyrrolo[2,3-c]pyridin-1-yl)benzamide], the EC50 in experiment [1] (72 h) was not below 1000 nM. Moreover, in experiment [2], the IC50 was less than 100 nM.

On to `CCN(C(=O)c1cc(F)ccc1-n1cc([C@H]2CCCN(Cc3ccc4c(c3)[nH]c(=O)n4CCO)C2)c2ccncc21)C(C)C` [Example 49B, (R)-N-ethyl-5-fluoro-2-(3-(1-((1-(2-hydroxyethyl)-2-oxo-2,3-dihydro-1H-benzo[d]imidazol-5-yl)methyl)piperidin-3-yl)-1H-pyrrolo[2,3-c]pyridin-1-yl)-N-isopropylbenzamide], for which, in experiment [1] (Homo sapiens, MV4-11, 72 h), the EC50 is less than 100 nM. For the same compound, the IC50 in experiment [2] was less than 100 nM.

On to `CC(C)N(C)C(=O)c1cc(F)ccc1-n1cc(C2CCCN(Cc3ccc4c(c3)[nH]c(=O)n4CCO)C2)c2ccncc21` (single isomer, unassigned) [Example 44B, 5-fluoro-2-(3-(1-((1-(2-hydroxyethyl)-2-oxo-2,3-dihydro-1H-benzo[d]imidazol-5-yl)methyl)piperidin-3-yl)-1H-pyrrolo[2,3-c]pyridin-1-yl)-N-isopropyl-N-methylbenzamide], for which the EC50 in experiment [1] (Homo sapiens, MV4-11, 72 h) is less than 100 nM. In experiment [2], this compound had an IC50 of less than 100 nM.

For `CC(C)N(C)C(=O)c1cc(F)ccc1-n1cc(C2CCCN(Cc3ccc4c(c3)[nH]c(=O)n4CCO)C2)c2ccncc21` (stereo not shown) [Example 44, 5-fluoro-2-(3-(1-((1-(2-hydroxyethyl)-2-oxo-2,3-dihydro-1H-benzo[d]imidazol-5-yl)methyl)piperidin-3-yl)-1H-pyrrolo[2,3-c]pyridin-1-yl)-N-isopropyl-N-methylbenzamide], the EC50 in experiment [1] (72 h) was less than 100 nM. The compound further displayed an IC50 in experiment [2] of less than 100 nM.

In the case of `CC(C)N(C)C(=O)c1cc(F)ccc1-n1cc([C@H]2CCCN(Cc3ccc4c(c3)[nH]c(=O)n4CCO)C2)c2ccncc21` (single isomer, unassigned) [Example 44A], in experiment [1] (Homo sapiens, MV4-11, 72 h), the EC50 was less than 100 nM. In experiment [2], this compound came in with an IC50 of less than 100 nM.

In the case of `CC(C)N(C(=O)c1cc(F)ccc1-n1cc(C2CCN(Cc3ccccc3)CC2)c2ccncc21)C(C)C` [Example 33, 2-(3-(1-benzylpiperidin-4-yl)-1H-pyrrolo[2,3-c]pyridin-1-yl)-5-fluoro-N,N-diisopropylbenzamide], in experiment [1] (Homo sapiens, MV4-11, 72 h), the EC50 was less than 100 nM. The compound further registered a half-maximal inhibitory concentration (IC50) in experiment [2] of less than 100 nM.

Regarding `CNC(=O)c1cccc(CCN2CCC(c3cn(-c4ccc(F)cc4C(=O)N(C)C(C)C)c4cnccc34)CC2)c1` [Example 26, 5-fluoro-N-isopropyl-N-methyl-2-(3-(1-(3-(methylcarbamoyl)phenethyl)piperidin-4-yl)-1H-pyrrolo[2,3-c]pyridin-1-yl)benzamide], the EC50 in experiment [1] (Homo sapiens, MV4-11, 72 h) fell in the range of 100 to 1000 nM. In experiment [2], this compound registered an IC50 of less than 100 nM.

Consider `CC(C)N(C)C(=O)c1cc(F)ccc1-n1cc(C2CCC(N(C)C)CC2)c2ccncc21` (single isomer, unassigned) [Example 54A, 2-(3-(4-(dimethylamino)cyclohexyl)-1H-pyrrolo[2,3-c]pyridin-1-yl)-5-fluoro-N-isopropyl-N-methylbenzamide], for which the EC50 in experiment [1] (72 h) is not below 1000 nM. Moreover, the concentration for half-maximal inhibition (IC50) in experiment [2] was 100 to 1000 nM.

`CC(C)N(C)C(=O)c1cc(F)ccc1-n1cc(C2CCC(NCC3CCC(NS(C)(=O)=O)CC3)CC2)c2ccncc21` (single isomer, unassigned) [Example 61, 5-fluoro-N-isopropyl-N-methyl-2-(3-(4-(((4-(methylsulfonamido)cyclohexyl)methyl)amino)cyclohexyl)-1H-pyrrolo[2,3-c]pyridin-1-yl)benzamide]: the EC50 in experiment [1] (72 h) lay within 100 to 1000 nM. The IC50 in experiment [2] was less than 100 nM.

As for `CC(C)N(C(=O)c1cc(F)ccc1-n1cc(C2CN(CC[C@H]3CC[C@H](NS(C)(=O)=O)CC3)C2)c2ccncc21)C(C)C` [Example 137, 5-fluoro-N,N-diisopropyl-2-(3-(1-(2-((1r,4r)-4-(methylsulfonamido)cyclohexyl)ethyl)azetidin-3-yl)-1H-pyrrolo[2,3-c]pyridin-1-yl)benzamide], in experiment [1] (Homo sapiens, MV4-11, 72 h), the EC50 is less than 100 nM. The same compound yielded an IC50 in experiment [2] of less than 100 nM.

With `CC(C)N(C)C(=O)c1cc(F)ccc1-n1cc([C@H]2CC[C@H](N3CCCCC3)CC2)c2ccncc21` [Example 106, 5-fluoro-N-isopropyl-N-methyl-2-(3-(trans-4-(piperidin-1-yl)cyclohexyl)-1H-pyrrolo[2,3-c]pyridin-1-yl)benzamide], in experiment [1] (Homo sapiens, MV4-11, 72 h), the EC50 fell in the range of 100 to 1000 nM. Further, the IC50 in experiment [2] is less than 100 nM.

In the case of `CC(C)N(C(=O)c1cc(F)ccc1-n1cc(C2CCCN(C[C@H]3CC[C@H](NS(C)(=O)=O)CC3)C2)c2ccncc21)C(C)C` (stereo partly shown) [Example 87, 5-fluoro-N,N-diisopropyl-2-(3-(1-(((1r,4r)-4-(methylsulfonamido)cyclohexyl)methyl)piperidin-3-yl)-1H-pyrrolo[2,3-c]pyridin-1-yl)benzamide], the EC50 in experiment [1] (Homo sapiens, MV4-11, 72 h) was less than 100 nM. In experiment [2], this compound gave an IC50 of less than 100 nM.
